System: biotinylated HRP
Experiment: Model system for selection of SSIA (AK1/streptavidin BSA microparticles + biotinylated HRP)
Assay type: biochemical, horseradish
Settings: SSIA 100 μM final; for light intensity, BTN-HRP0: Btn-HRP 0 ng/mL; for light intensity, BTN-HRP0 / light intensity, BTN-HRP1 / light intensity, BTN-HRP10 / light intensity, BTN-HRP100 / light intensity, BTN-HRP250: total HRP 500 ng/mL; for S1/S0: Btn-HRP 1 ng/mL vs 0; for light intensity, BTN-HRP1: Btn-HRP 1 ng/mL; for S2/S0: Btn-HRP 10 ng/mL vs 0; for light intensity, BTN-HRP10: Btn-HRP 10 ng/mL; for S3/S0: Btn-HRP 100 ng/mL vs 0; for light intensity, BTN-HRP100: Btn-HRP 100 ng/mL; for S4/S0: Btn-HRP 250 ng/mL vs 0; for light intensity, BTN-HRP250: Btn-HRP 250 ng/mL
Experimental: The model system uses a microparticle conjugated to BSA (bovine serum albumin) labeled with a […] and acridan ketenedithioacetal chemiluminescent label (AK1) as the chemiluminescent-labeled sbp, and biotinylated HRP as the activator-labeled specific binding pair. In the model system, varying amounts of Btn-HRP is added to the chemiluminescent-labeled specific binding pair at 0, 1, 10, 100 and 250 ng/mL. Additional unlabeled HRP is added to reach a total HRP of concentration of 500 ng/mL in each reaction mixture. The unlabeled HRP in combination with the activator-labeled sbp was provided to the chemiluminescent-labeled sbp microparticles to emulate sample. A compound for assessment as an SSIA was also added. This reaction mixture of the model system is then triggered by addition of trigger solution in a manner of assays of the present disclosure.
To prepare the chemiluminescent-labeled sbp on microparticles, Bovine Serum Albumin (BSA) was biotinylated with 4× molar excess of biotin-LC-sulfoNHS (Pierce Biotechnology Inc., Rockford, Ill., USA). Unbound reactants were removed via desalting or dialysis. The biotin-BSA was then reacted with a 5× molar excess of an NHS ester of acridan ketenedithioacetal AK1 in 20 mM sodium phosphate pH 7.2: DMSO 75:25, v/v) followed by desalting in the same buffer. The dual labeled (biotin and AK1) BSA was then coupled with tosyl activated M280 microparticles (Invitrogen Corporation, Carlsbad, Calif., USA) in a 0.1M borate buffer pH 9.5 at a concentration of about 20 μg of labeled BSA per mg of microparticles for 16-24 h at 40° C. After coupling the microparticles were stripped for 1 h at 40° C. with 0.2 M TRIS base, 2% SDS, pH˜11. The stripping process was repeated one additional time. Microparticles were then suspended in a 0.1% BSA/TRIS buffered saline (BSA/TBS) buffer and streptavidin (SA) was added at approximately 15 μg SA per mg microparticles. Streptavidin was mixed with the microparticles for 45-50 min at room temperature. The microparticles were then washed three times and suspended in the same BSA/TBS.
HRP, (Roche Diagnostics, Indianapolis, Ind., USA) was biotinylated with 4× molar excess of biotin-LC-sulfoNHS (Pierce Biotechnology Inc., Rockford, Ill., USA). Alternatively, 25× molar excess of biotin-PEO4-NHS may be used. Unbound reactants were removed via desalting or dialysis.
Each SSIA compound for assessment was solubilized in Buffer II at a concentration at least 10× of the working strength concentration.
25 μl of 1 mg/ml of dual-labeled (biotin and AK1) BSA M280 particles were mixed with 45 μl of working concentration SSIA in Buffer II. The assay volume brought to 85 μl by adding 15 μl of Buffer II. 15 μl of sample containing Btn-HRP:HRP at different ratios (The amount of biotinylated-HRP varied from 0, 1, 10, 100 and 250 ng/mL) was added. The reaction mixture was incubated for 30 min at 37° C., then 100 μL of trigger solution was added and the light intensity recorded. Total volume of reaction mixture, including trigger solution was 200 μL with a final concentration of 100 μM of SSIA.
The screening tests were performed using a modified DxI® Immunoassay System (Beckman Coulter, Inc. Brea, Calif.) as described above.

Molecule | light intensity, BTN-HRP0 | S1/S0 | light intensity, BTN-HRP1 | S2/S0 | light intensity, BTN-HRP10 | S3/S0 | light intensity, BTN-HRP100 | S4/S0 | light intensity, BTN-HRP250 | effectiveness as SSIA in the model system
O=C(O)CCCC[C@@H]1CCSS1 (racemic) [Lipoic Acid] | 35,016 | 2 | 71,751 | 70.0 | 2,450,949 | 246.9 | 8,647,037 | 252.7 | 8,847,921 | insuffient effectiveness
CC1(C)CC(O)CC(C)(C)N1[O] [TEMPOL] | 22,621 | 1.5 | 33,873 | 86.8 | 1,963,369 | 407.6 | 9,220,799 | 467.6 | 10,578,104 | insuffient effectiveness
COc1cc(/C=C/C(=O)O)ccc1O [Ferulic acid] | 5,252 | 2.3 | 12,079 | 136.2 | 715,313 | 1672.9 | 8,785,865 | 1950.5 | 10,244,269 | 
CC(=O)N[C@@H](CS)C(=O)O [N-Ac-Cysteine, N-acetyl cysteine] | 43,647 | 1.1 | 47,636 | 40.3 | 1,757,607 | 199 | 8,685,795 | 234.2 | 10,219,869 | insuffient effectiveness
Oc1ccc(O)c(Cl)c1 [2-chloro-1,4-dihydroxybenzene] | 3,571 | 1.1 | 4,007 | 52.9 | 188,920 | 170.8 | 610,053 | 245.3 | 875,831 | 
COc1cc(C(=O)O)cc(OC)c1O [Syringic Acid] | 14,485 | 1.6 | 23,707 | 64.8 | 939,372 | 547.2 | 7,927,096 | 658 | 9,530,979 | 
Nc1ccc(C(=O)O)cc1O [4-Amino-3-hydroxy-benzoic acid] | 972 | 2.9 | 2,808 | 454.2 | 441,455 | 6076.7 | 5,906,521 | 6587.9 | 6,403,425 | demonstrating utility as SSIA
Oc1ccc(C=Cc2cc(O)cc(O)c2)cc1 [Resveratrol] | 64,051 | 1.3 | 81,452 | 16.8 | 1,073,968 | 92.8 | 5,944,792 | 102.4 |  | insuffient effectiveness
N[C@@H](CS)C(=O)O [Cysteine] | 35,695 | 1.6 | 58,203 | 69.6 | 2,483,411 | 256.3 | 9,147,371 | 285.5 | 10,190,505 | insuffient effectiveness
O=C(O)c1cccnc1 [Nicotinic Acid] | 34,369 |  | 53,765 |  | 2,228,317 |  | 8,772,523 |  | 9,224,439 | insuffient effectiveness
CC1(C)OC[C@@H]([C@H]2OC(=O)C(O)=C2O)O1 [5,6iso-propyliene ascorbic acid] | 264 | 3.6 | 961 | 112.3 | 29,645 | 18626.9 | 4,917,499 | 33275 | 8,784,595 | demonstrating utility as SSIA
(+/−)-alpha-Tocopherol | 2,772 | 2.3 | 6,468 | 452.1 | 1,253,187 | 3088.2 | 8,560,469 | 3473.4 | 9,628,184 | 
CCCCCCCCCCCCCCCC(=O)OC[C@H](O)[C@H]1OC(=O)C(O)=C1O [Ascorbic Acid 6-palmitate] | 81 | 4 | 327 | 502.4 | 40,863 | 100662.3 | 8,187,204 | 125193.6 | 10,182,411 | demonstrating utility as SSIA
O=c1[nH]c(=O)c2[nH]c(=O)[nH]c2[nH]1 [Uric Acid] | 5,532 | 1.8 | 9,760 | 185.3 | 1,025,209 | 1574.9 | 8,712,328 | 1935.8 | 10,708,733 | 
Cc1c(O)cc2c(c1C)O[C@](C)(CCC[C@H](C)CCC[C@H](C)CCCC(C)C)CC2 [(+)-gamma-Tocopherol] | 6,051 | 1.8 | 10,924 | 278.7 | 1,686,079 | 1437.5 | 8,698,069 | 1699.4 | 10,282,504 | 
NNC(=O)c1cccnc1 [Nicotinic Hydrazide] | 42,260 | 1.4 | 58,356 | 49.8 | 2,106,471 | 194.2 | 8,205,320 | 187.5 | 7,923,092 | insuffient effectiveness
COc1ccc2[nH]cc(CCNC(C)=O)c2c1 [Melatonin] | 54,528 | 1.3 | 70,741 | 43.7 | 2,381,361 | 173.7 | 9,471,431 | 190.2 | 10,370,061 | insuffient effectiveness
Cl.Nc1ccc(O)cc1O [4-aminoresorcinol hydrochloride] | 675 | 1.7 | 1,163 | 110.8 | 74,764 | 489.0 | 330,056 | 384.5 | 259,541 | 

From patent US9029092B2, “Solution phase homogeneous assays” (Beckman Coulter, Inc., priority 2009, dated 2015)
